≈ marks a conversion by molar mass, not a printed value. Marks after values point to notes of the source that are not given here.
Assays:
[1] = In vitro drug release from niosomes (dialysis membrane, PBS-SDS, 37 °C); type: physicochemical; conditions: for Higuchi coefficient (kH): release from niosomal carriers, Higuchi model
Method: To investigate the drug’s release profile from the niosomes, an in vitro release study was performed. For the release study, we used loading rates calculated by a drug loading study. A 2 mL aliquot of the optimized niosomal formulation was enclosed within a dialysis membrane (with a 12 kDa molecular weight cut-off) and incubated for 72 h at 37 °C. This incubation occurred in a stirring environment within 50 mL of a release solution composed of phosphate-buffered saline with 0.5% sodium dodecyl sulfate (PBS-SDS) by w/v. Samples of 1 mL were systematically withdrawn at specific intervals (1, 2, 4, 8, and 24 h) from the release medium, with each withdrawal immediately compensated for by an equivalent volume of fresh release medium. The optical density of these samples was measured at 236 nm using a spectrophotometer. From these measurements, the quantity of memantine released was calculated, and the release percentages were reported as a proportion of the total drug release.
Drug release capacities with MP1–4 were determined using the niosomal release systems generated. […] This feature offers an important advantage in terms of controlled drug release. The drug release study was carried out by measuring the absorbance using a spectrophotometer on samples taken at specific time intervals (1, 2, 4, 8, and 24 h). These measurements were carried out at the max peak of the drugs, and the data obtained were used to determine the amount of memantine derivative drug released. The results present the percentages of the released content as a percentage of total release. […] It was also concluded that a slow and proportional release occurred over the indicated time period, indicating the potential for controlled drug release (Figure 6).

[2] = test system: differentiated SH-SY5Y cells exposed to amyloid beta 1−42 peptide; test: Neuroprotection in the in vitro AD model (differentiated SH-SY5Y exposed to amyloid beta 1-42), MTT; type: cell-based, human; conditions: for increase of cell viability versus amyloid beta only control: derivative loaded into niosomal drug delivery system, 47 µg/mL, 24 h; for cell viability versus amyloid beta only control (neuroprotective effect): free compound 47 µg/mL, 10 µM amyloid beta 1−42; for concentration range of optimal neuroprotective activity: AD model, differentiated neuronal cultures
Method: (§1) The SH-SY5Y neuroblastoma cell line, frequently used as an in vitro model of Alzheimer’s disease, has been cultured to transform into mature neuron-like structures through differentiation with retinoic acid (RA). For this purpose, the SH-SY5Y neuroblastoma cell line was grown in a DMEM:F12 nutrient medium environment with 10% fetal bovine serum (FBS) growth factor, 1% Penicillin/streptomycin, and 5% CO2 at 37 °C. The nutrient medium was refreshed every three days, with half the volume changed. Cells were subcultured after treatment with trypsin/EDTA for 5 min. To differentiate SH-SY5Y cells, the medium containing 10 µM RA (DMEM:F12 + 15% FBS) was added. Five days after the addition of RA, the cells were washed three times with PBS and incubated in DMEM:F12. The differentiation of the cells was determined by cell cycle analysis using a flow cytometry system. […] Converted cell cultures were used as a negative control, and cell cultures with only amyloid beta were used as a positive control without adding the synthesized molecules. The viability rates in the in vitro AD model that we intended to create were analyzed with MTT cytotoxicity tests.
Differentiated SH-SY5Y cells were seeded into 96-well plates, with each well containing 100 μL of culture medium with 2 × 10^4 cells. […] At the end of the incubation period, 10 μL of MTT mixture was added to each well for MTT analysis. The mixture was gently stirred using a circular mixer for 1 min and then incubated in a CO2 incubator at 37 °C for 3–4 h. […] The culture medium was carefully aspirated from each compartment without disturbing the cell layer. Alternatively, before aspiration, the plate was centrifuged at 400× g for 10 min to settle non-adherent cells. Then, 100 μL of crystal solvent solution (DMSO) was added to each compartment, and the absorbance of each sample was measured at 570 nm using a microplate reader.
This peptide is instrumental in AD pathology and serves as a pertinent stressor for assessing the neuroprotective efficacy of potential therapeutic agents.
In the conducted in vitro studies, the neuroprotective effects of memantine derivatives encapsulated within a nanosomal drug delivery system were evaluated using the SH-SY5Y neuroblastoma cell line as a model for AD. The differentiated neuronal cultures were treated with memantine derivatives which were loaded into the niosomal drug delivery systems at a uniform concentration of 47 µg/mL across three independent experimental repeats.

[3] = test system: differentiated SH-SY5Y cells; test: MTT cell viability test in differentiated SH-SY5Y cell cultures; type: cell-based, human; conditions: for cell viability at the highest concentration: 500 µg/mL; for IC50: Homo sapiens, read-out: IC50 (concentration required to achieve 50% cell viability), MTT
Method: Differentiated SH-SY5Y cells were seeded into 96-well plates, with each well containing 100 μL of culture medium with 2 × 10^4 cells. […] At the end of the incubation period, 10 μL of MTT mixture was added to each well for MTT analysis. The mixture was gently stirred using a circular mixer for 1 min and then incubated in a CO2 incubator at 37 °C for 3–4 h. […] The culture medium was carefully aspirated from each compartment without disturbing the cell layer. Alternatively, before aspiration, the plate was centrifuged at 400× g for 10 min to settle non-adherent cells. Then, 100 μL of crystal solvent solution (DMSO) was added to each compartment, and the absorbance of each sample was measured at 570 nm using a microplate reader [18].

[4] = test system: human fibroblast cells (HDFa); test: MTT cell viability assay of MP1–4 in cultured human fibroblast cells (HDFa); type: cell-based; conditions: at each concentration applied
Method: (§2) The human fibroblast cell line (ATCC® PCS-201-012™ Manassas, VA, USA) was propagated in DMEM culture medium enriched with a 1% mixture of penicillin/streptomycin antibiotics and 10% fetal bovine serum (FBS) and maintained in an atmosphere containing 5% CO2 at a temperature of 37 °C until they reached full confluence. To identify nuclei alterations, Hoechst 33258 fluorescent dye was employed. […] Following the treatment period, the cells were stabilized using 4% paraformaldehyde at a cool temperature of 4 °C for 30 min. The cells were then rinsed with PBS and exposed to 1 µM of the Hoechst 33258 dye for a brief duration of 5 min [15]. After the staining process, the cells were examined and imaged using a Leica® DM IL LED (Leica Microsystems, Wetzlar, DE) fluorescent microscope.
The human fibroblast cell line HDFa was cultured and tested for toxicity with 4 different memantine derivatives in 48-well plates. The experiments, conducted in triplicate, included both treated and untreated (negative control) cell cultures. Post-treatment, the cells were incubated with an MTT mixture to assess cell viability, followed by the addition of a crystal solvent solution (DMSO) to dissolve formazan crystals formed in viable cells. The absorbance of each sample was measured to evaluate the cytotoxic effects of the memantine derivatives on the fibroblast cells. […]

[5] = test system: human fibroblast (HDFa) cell cultures; test: Nuclear abnormality / micronucleus analysis by Hoechst 33258 staining in HDFa cells; type: cell-based; conditions: 24 h, 125 μg/mL
Method: as §2
Figure 4 Analysis of the genotoxic properties of synthesized memantine derivatives (MP1–4) in cultured human fibroblast cells (HDFa) using Hoechst 33258 fluorescent staining of cell nuclei. (A) MP1, (B) MP2, (C), MP3 and (D) MP4.

[6] = Drug loading (encapsulation efficiency) of niosomes, UV at 236 nm after centrifugal filtration; type: physicochemical; conditions: Span60:cholesterol 2:1, drug 1 mg/mL
Method: The efficiency of MP1–4 encapsulation within the niosomes was evaluated by quantifying the unencapsulated MP1–4. This was achieved by centrifuging the niosomal mixtures at 4 °C for 20 min at a speed of 4000 rpm, utilizing an Amicon Ultra centrifuge filter unit (Millipore Merck, Darmstadt, DE). The optical density of the supernatant containing free MP1–4 was measured at a wavelength of 236 nm with a UV–Vis spectrophotometer (Eppendorf® 580R centrifuge, Hamburg, DE). By determining the concentration of the free drug in the supernatant, we were able to calculate the unknown amount of encapsulated drug. The encapsulation efficiency percentage was then computed based on the initial molecule concentration (Ci) used in the niosome preparation versus the concentration found post-centrifugation (Cf), as in the following equation:% Loading capacity = [(Ci − Cf)/Ci] × 100 (1)
The loading capacities of the synthesized memantine derivative compounds in the niosomal drug delivery system were examined in detail. In this study, loading efficiency was determined by centrifuging niosomal formulations using an Amicon Ultra centrifuge filter device (Millipore Merck, Burlington, MA, USA) at 4000 rpm for 20 min at 4 °C. The amount of free drug remaining was recorded using a UV–Vis spectrophotometer (Eppendorf® 580R centrifuge, Hamburg, DE). […] However, the loading capacity of the memantine derivative MP2 was determined to be 53%, which is below the desired capacity.

[7] = test system: bEnd.3 cells / SH-SY5Y disease model; test: In vitro BBB permeability test, transwell bEnd.3 monolayer over SH-SY5Y disease model, viability readout; type: cell-based; conditions: carrier 0.1 mg/mL loaded with 47 µg/mL vs non-loaded 47 µg/mL, 24 h
Method: In vitro BBB models were created using a transwell culture system for BBB permeability analysis. Initially, bEnd.3 cells were seeded inside the membrane of the plate at a starting density of 1 × 10^5 cells/well and cultured for about a week in DMEM growth medium supplemented with 10% fetal bovine serum. Subsequently, the upper compartments containing bEnd.3 monolayers were transferred to plates containing SH-SY5Y cells coated at the bottom of the lower compartments. Then, carrier particles were added to the apical upper chambers of the BBB models at a final concentration of 0.1 mg/mL. Approximately 24 h after incubation, viability analyses were conducted on the SH-SY5Y disease model formed in the lower layer to determine BBB permeability capacities. A schematic diagram of the method is shown below (Figure 2). Prior to starting the experimental procedures, the bEnd.3 cells were cultured until 90–100% confluency was achieved, as this confluency level is necessary for tight junction formation and optimal barrier properties. The integrity of the cell monolayer was then evaluated under an inverted microscope to confirm confluence and uniform cell distribution, ensuring the reliability of the in vitro BBB model.
In vitro BBB permeability analyses were conducted by establishing in vitro transwell BBB models, within which the effects of drug-loaded MP1–4 were studied. […]

SH-SY5Y cells = test: Cell cycle distribution of SH-SY5Y cells by flow cytometry after retinoic acid differentiation; type: cell-based, human; conditions: all-trans retinoic acid 10 µM, 11 days
Method: as §1
To confirm successful differentiation, flow cytometry was utilized to analyze the cell cycle distribution within the cultures.

SMILES	Higuchi coefficient (kH) [1]	increase of cell viability versus amyloid beta only control [2]	cell viability versus amyloid beta only control (neuroprotective effect) [2]	cell viability at the highest concentration [3]	IC50 [3]	decrease of cell viability [4]	Mean NA/1000 Cells ± SD [5]	Nuclear Abnormalities (NA) Total Lobbed [5]	Nuclear Abnormalities (NA) Total MN [5]	Nuclear Abnormalities (NA) Total Notched [5]	Drug Loading (%) / encapsulation efficiency [6]	effect on cell viability / neuroprotection of niosome-loaded versus non-loaded derivative [7]	concentration range of optimal neuroprotective activity [2]	drug release behaviour from niosomal release systems ([1]; sampling at 1, 2, 4, 8 and 24 h)	Cell Population (%) G1 Phase (SH-SY5Y cells)	Cell Population (%) G2 Phase (SH-SY5Y cells)	Cell Population (%) S Phase (SH-SY5Y cells)
CC12CC3CC(C)(C1)CC(NC(=O)/C=C/c1ccc(O)c(O)c1)(C3)C2 [MP4]	10.82	approximately 40%	significantly enhanced cell viability	significantly reduced	659 µg/mL (≈ 1930 µM)	~40%	0.013 ± 0.003 ^a	4	5	4	≥ 85%	higher effect on cell viability and a significant increase in neuroprotective properties					
CC12CC3CC(C)(C1)CC(NC(=O)CCCc1ccccc1)(C3)C2 [MP2]	7.55	approximately 40%	significantly enhanced cell viability	relatively higher cell viability	457 µg/mL (≈ 1400 µM)		0.012 ± 0.002 ^a	5	4	3	53%		31.25 to 125 µg/mL				
CCCC(CCC)C(=O)NC12CC3CC(C)(CC(C)(C3)C1)C2 [MP1]	10.36	approximately 40%	significantly enhanced cell viability	relatively higher cell viability	5620 µg/mL (≈ 18400 µM)		0.013 ± 0.001 ^a	3	5	5	≥ 85%	higher effect on cell viability and a significant increase in neuroprotective properties	15.6 to 62.5 µg/mL	most optimal drug release			
CC1=C(/C=C/C(C)=C/C=C/C(C)=C/C(=O)O)C(C)(C)CCC1 [RA Treated, all-trans retinoic acid]															72.45 ± 3.78 %	5.34 ± 0.17 %	18.65 ± 3.23 %
